Measurements published in patent US20230310441A1, “TREATMENT FOR SCHIZOPHRENIA” (TAKEDA PHARMACEUTICAL COMPANY, priority 2020, published 2023).

Key:
[1] = Brief Assessment of Cognition in Schizophrenia (BACS) composite score; format: in vivo, human
Experimental: On Day 1 of each treatment period, following study drug administration, and commencing at approximately 2 h post-dose, subjects underwent PD tests for a total of approximately 4 h. Blood samples were collected at defined times after dosing to assess the PK of Compound (I). After the last PK collection at 6 h post-dose, subjects left the clinic. On Day 14 of each Treatment Period, subjects took the second set of PD tests along with a single time point PK collection. Samples for PK were also collected on Day 49 and at the final visit of the second treatment period. PD testing were performed in 3 blocks, separated by 2 breaks. The first block comprised the Grip Effort Task, the Progressive Ratio Test, and the Brief Assessment of Cognition in Schizophrenia (BACS). The BACS is a reliable and sensitive test battery specifically designed to efficiently assesses important cognitive deficits in patients with schizophrenia; accordingly, the BACS is suited for repeated testing in a clinical trial setting (Keefe et al., 2004). […] The following domains of cognitive function found to be consistently impaired in schizophrenia were assessed in this study: verbal memory; working memory; motor function; attention and processing speed; verbal fluency; and executive function. A composite score was calculated from each of the subset scores and used as a single endpoint for the assessment.
The BACS consisted of items across 6 subtests: Verbal Memory, Digit Sequencing, Token Motor, Verbal Fluency, Symbol Coding, and Tower of London.
The observed BOLD signal was summarized (N, mean, median, SD, minimum, and maximum) by treatment (Compound (I) (overall and by dose) and placebo) and time. The BACS composite score was summarized for baseline, post-dose, and change from baseline by treatment, dose, and time.
Each of the primary PD measures was analyzed using a Bayesian normal linear model with effects for sequence, period, treatment, time (as a categorical variable), the treatment-by-time interaction, subject within treatment sequence, and baseline (for BACS only). For the BOLD fMRI, the observed value was the response variable in the model. For the BACS, the observed and the change from baseline were modeled separately. Missing values were not imputed and were not included in the model under a missing at random assumption. A diffuse normal distribution with mean zero and variance 106 was used as a prior for the regression coefficients and a diffuse inverse gamma with shape and scale parameters of 0.01 for the residual variance. […]

[2] = Phase 1 FIH study Part 4: safety and tolerability (TEAEs) in patients with stable schizophrenia; format: in vivo, human
Excerpt: Part 4 was a double-blind, weekly single dosing, parallel group design in patients with stable schizophrenia.
Participants in the placebo group received placebo on all study dosing days.
In Part 4, participants met schizophrenia criteria as defined by the Diagnostic and Statistical Manual of Mental Disorders, 5th Edition (DSM-5) by the Mini International Neuropsychiatric Interview (MINI), a Positive and Negative Syndrome Scale (PANSS) total score ≤90 and a sum of PANSS N1, N2, N3, N4, N6, G7 and G16≥15 at screening and baseline. In addition, participants had to be on a stable dose of antipsychotic medication for at least two months.
Safety measurements used in the phase 1 study included treatment-emergent adverse events (TEAEs), physical examinations, weight, height, BMI, vital signs, clinical laboratory evaluations, pregnancy monitoring, and ECG procedures.
Participants experiencing two or more different TEAEs were counted only once. Frequent TEAEs were defined as adverse events that occurred in at least two participants in any treatment. Participants were evaluated with respect to mood and alertness (BL-VAS) and suicidality (C-SSRS).

cerebral blood flow = assay: Average global cerebral blood flow (pCASL MRI); format: in vivo, human
Excerpt: Whole brain maps of regional cerebral blood flow (CBF) were obtained using an ASL methodology previously reported (Hawkins et al., 2018; Dai et al., 2008). Briefly, images were acquired using a pseudo-continuous Arterial Spin Labelling sequence (pCASL) with a multi-shot, segmented 3D stack of axial spirals (8-arms) readout with a resultant spatial resolution of 2×2×3 mm. Three control-label pairs were used to derive a perfusion weighted difference image. The labelling RF pulse had duration of 1.5 s and a post-labelling delay of 1.5 s. The sequence included background suppression for optimum reduction of the static tissue signal. A Proton Density image was acquired in 48 s using the same acquisition parameters to compute the CBF map in standard physiological units (mL blood/100 g tissue/min). Two runs were acquired per visit and averaged following preprocessing.
The T2-weighted image was co-registered to the T1-weighted image prior to creation of the DARTEL template, and each session's Proton Density image was then co-registered to the T2-weighted image. The parameters for this transformation were then applied to the CBF maps, and the DARTEL flow field applied to normalize to CBF maps to MNI space, before smoothing with a 6 mm FWHM kernel.
Average global cerebral blood flow (CBF) was extracting using an SPM MNI whole brain mask in MarsBar, and was analyzed at each time point with a mixed two-way ANOVA (treatment (placebo/drug) within subject factor, dose level (40 mg/160 mg) between-subject factor) (FIG. 4).

[3] = Separate single dose oral study: half-life in humans; conditions: human, in vivo; single dose oral administration
Excerpt: The mean t1/2z for Compound (I) reflects the prolonged half-life of Compound (I) in humans. […] In that study, the mean human half-life of Compound (I) (approximately 11 days) was substantially higher than the 2-4 hr mean half-life observed in rats and dogs.

[4] = Part 4 MRD, 160/80 mg, N = 16, participants (percent)

C[C@H](NC(=O)Cn1nnc2ccccc2c1=O)c1ccc(OC(F)(F)F)cc1 [Compound (I), (S)-2-(4-oxobenzo[d][1,2,3]triazin-3(4H)-yl)-N-(1-(4-(trifluoromethoxy)phenyl)ethyl)acetamide]
posterior mean (SD) for the difference to placebo, BACS composite score ([1]; Day 14, 40 mg): −0.23 (2.95)
posterior mean (SD) for the difference to placebo, BACS composite score ([1]; Day 14, 160 mg): −0.84 (1.87)
posterior mean (SD) for the difference to placebo, BACS composite score ([1]; Day 14, overall): −0.61 (1.50)
BACS performance ([1]; phase 2): not seen to be affected
TEAE intensity ([2]; Part 4 (MRD)): All TEAEs were mild
frequency of TEAEs related to the study drug ([2]; Part 4 (MRD), patients with schizophrenia who received Compound (I)): 56.3%
Any TEAE [2, 4]: 9 (56.3)
TEAE Mild [2, 4]: 9 (56.3)
TEAE Related [2, 4]: 9 (56.3)
effect of treatment on average global CBF (mixed two-way ANOVA) (cerebral blood flow; Day 1, 40 mg/160 mg vs placebo, F(1, 18)=5.978, p=0.025): significant effect of treatment
effects on cerebral blood flow compared to placebo (cerebral blood flow; Day 1 and Day 14): widespread and robust reductions at Day 1 followed by increases at Day 14
effect of treatment on average global CBF (mixed two-way ANOVA) (cerebral blood flow; Day 14, 40 mg/160 mg vs placebo, F(1, 15)=3.558, p=0.079): no significant effect of treatment
half-life [3]: ~11 days
